Laboratory results: US8580794B2 (AbbVie Inc., priority 2009, dated 2013)

Each compound was assayed against GST-Bc1-2 (Homo sapiens, UniProt P10415) (assay: Time Resolved-Fluorescence Resonance Energy Transfer (TR-FRET) Bcl-2 binding assay with F-Bak peptide probe). Details: GST-Bcl-2 1 nM, F-Bak probe 100 nM, Tb-anti-GST 1 nM; '<' = below limit of detection; read-out: TR-FRET Bcl-2 Binding Ki.
GST-Bc1-2, sequence (P10415 whole entry): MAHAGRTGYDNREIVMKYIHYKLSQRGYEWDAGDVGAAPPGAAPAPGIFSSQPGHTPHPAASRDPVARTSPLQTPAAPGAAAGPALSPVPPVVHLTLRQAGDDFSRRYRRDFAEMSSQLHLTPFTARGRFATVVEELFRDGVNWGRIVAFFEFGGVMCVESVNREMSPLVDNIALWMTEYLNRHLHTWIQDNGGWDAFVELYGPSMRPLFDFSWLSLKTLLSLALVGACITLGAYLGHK

CC1(C)CCC(CN2CCN(c3ccc(C(=O)NS(=O)(=O)c4ccc(NCC5COCCO5)c([N+](=O)[O-])c4)c(Oc4cnc5[nH]ccc5c4)c3)CC2)=C(c2ccc(Cl)cc2)C1 (stereo not drawn) [Example 25, 4-(4-{[2-(4-chlorophenyl)-4,4-dimethylcyclohex-1-en-1-yl]methyl}piperazin-1-yl)-N-({4-[(1,4-dioxan-2-ylmethyl)amino]-3-nitrophenyl}sulfonyl)-2-(1H-pyrrolo[2,3-b]pyridin-5-yloxy)benzamide] and CC1(C)CCC(CN2CCN(c3ccc(C(=O)NS(=O)(=O)c4ccc(NCC5COCCN5)c([N+](=O)[O-])c4)c(Oc4cnc5[nH]ccc5c4)c3)CC2)=C(c2ccc(Cl)cc2)C1 (stereo not drawn) [Example 66, 4-(4-{[2-(4-chlorophenyl)-4,4-dimethylcyclohex-1-en-1-yl]methyl}piperazin-1-yl)-N-({4-[(morpholin-3-ylmethyl)amino]-3-nitrophenyl}sulfonyl)-2-(1H-pyrrolo[2,3-b]pyridin-5-yloxy)benzamide] cannot be ordered by Ki: < 0.01 nM for the first, < 0.01 nM for the second.

Compared with CC1(C)CCC(CN2CCN(c3ccc(C(=O)NS(=O)(=O)c4ccc(NCC5CN(C6CC6)CCO5)c(Cl)c4)c(Oc4cnc5[nH]ccc5c4)c3)CC2)=C(c2ccc(Cl)cc2)C1 (stereo not drawn) [Example 332, N-[(3-chloro-4-{[(4-cyclopropylmorpholin-2-yl)methyl]amino}phenyl)sulfonyl]-4-(4-{[2-(4-chlorophenyl)-4,4-dimethylcyclohex-1-en-1-yl]methyl}piperazin-1-yl)-2-(1H-pyrrolo[2,3-b]pyridin-5-yloxy)benzamide], CC1(C)CCC(CN2CCN(c3ccc(C(=O)NS(=O)(=O)c4ccc(N[C@H]5CCCN(C6CCOCC6)C5)c([N+](=O)[O-])c4)c(Oc4cnc5[nH]ccc5c4)c3)CC2)=C(c2ccc(Cl)cc2)C1 [Example 105, 4-(4-{[2-(4-chlorophenyl)-4,4-dimethylcyclohex-1-en-1-yl]methyl}piperazin-1-yl)-N-[(3-nitro-4-{[(3S)-1-tetrahydro-2H-pyran-4-ylpiperidin-3-yl]amino}phenyl)sulfonyl]-2-(1H-pyrrolo[2,3-b]pyridin-5-yloxy)benzamide] is lower in Ki: 0.621 nM for the first, < 0.01 nM for the second.

CC(C)N1CCC2(CCC(c3ccc(Cl)cc3)=C(CN3CCN(c4ccc(C(=O)NS(=O)(=O)c5ccc(NCC6CCOCC6)c([N+](=O)[O-])c5)c(Oc5cnc6[nH]ccc6c5)c4)CC3)C2)CC1 [Example 266, 4-(4-{[9-(4-chlorophenyl)-3-isopropyl-3-azaspiro[5.5]undec-8-en-8-yl]methyl}piperazin-1-yl)-N-({3-nitro-4-[(tetrahydro-2H-pyran-4-ylmethyl)amino]phenyl}sulfonyl)-2-(1H-pyrrolo[2,3-b]pyridin-5-yloxy)benzamide] and CC1CN(c2ccc(C(=O)NS(=O)(=O)c3ccc(NCC4CCOCC4)c([N+](=O)[O-])c3)c(Oc3cnc4[nH]ccc4c3)c2)CCN1CC1=C(c2ccc(Cl)cc2)CC(C)(C)CC1 (stereo not drawn) [Example 290, 4-(4-{[2-(4-chlorophenyl)-4,4-dimethylcyclohex-1-en-1-yl]methyl}-3-methylpiperazin-1-yl)-N-({3-nitro-4-[(tetrahydro-2H-pyran-4-ylmethyl)amino]phenyl}sulfonyl)-2-(1H-pyrrolo[2,3-b]pyridin-5-yloxy)benzamide] cannot be ordered by Ki: < 0.01 nM for the first, < 0.01 nM for the second.

First: O=C(NS(=O)(=O)c1ccc(NCC2CCOCC2)c([N+](=O)[O-])c1)c1ccc(N2CCN(Cc3ccccc3-c3ccc(Cl)cc3)CC2)cc1Oc1cnc2[nH]ccc2c1 [Example 1, 4-{4-[(4′-chloro-1,1′-biphenyl-2-yl)methyl]piperazin-1-yl}-N-({3-nitro-4-[(tetrahydro-2H-pyran-4-ylmethyl)amino]phenyl}sulfonyl)-2-(1H-pyrrolo[2,3-b]pyridin-5-yloxy)benzamide]
Second: CC1(C)CC(c2ccc(Cl)cc2)=C(CN2CCN(c3ccc(C(=O)NS(=O)(=O)c4ccc(NCC5CCOCC5)c(C(F)(F)F)c4)c(Oc4cnc5[nH]ccc5c4)c3)CC2)CO1 [Example 42, 4-(4-{[4-(4-chlorophenyl)-6,6-dimethyl-5,6-dihydro-2H-pyran-3-yl]methyl}piperazin-1-yl)-2-(1H-pyrrolo[2,3-b]pyridin-5-yloxy)-N-{[4-[(tetrahydro-2H-pyran-4-ylmethyl)amino]-3-(trifluoromethyl)phenyl]sulfonyl}benzamide]
The Ki of the first is 2-fold lower: 0.225 nM for the first, 0.439 nM for the second.

COCCOCCN1CC[C@@H](Nc2ccc(S(=O)(=O)NC(=O)c3ccc(N4CCN(CC5=C(c6ccc(Cl)cc6)CC(C)(C)CC5)CC4)cc3Oc3cnc4[nH]ccc4c3)cc2[N+](=O)[O-])C1 [Example 254, 4-(4-{[2-(4-chlorophenyl)-4,4-dimethylcyclohex-1-en-1-yl]methyl}piperazin-1-yl)-N-{[4-({(3R)-1-[2-(2-methoxyethoxy)ethyl]pyrrolidin-3-yl}amino)-3-nitrophenyl]sulfonyl}-2-(1H-pyrrolo[2,3-b]pyridin-5-yloxy)benzamide] and CN1CCN(Nc2ccc(S(=O)(=O)NC(=O)c3ccc(N4CCN(CC5=C(c6ccc(Cl)cc6)CC(C)(C)OC5)CC4)cc3Oc3cnc4[nH]ccc4c3)cc2[N+](=O)[O-])CC1 [Example 67, 4-(4-{[4-(4-chlorophenyl)-6,6-dimethyl-5,6-dihydro-2H-pyran-3-yl]methyl}piperazin-1-yl)-N-({4-[(4-methylpiperazin-1-yl)amino]-3-nitrophenyl}sulfonyl)-2-(1H-pyrrolo[2,3-b]pyridin-5-yloxy)benzamide] cannot be ordered by Ki: < 0.01 nM for the first, < 0.01 nM for the second.

First: CC1(C)CCC(CN2CCN(c3ccc(C(=O)NS(=O)(=O)c4cnc(N[C@H]5CC[C@H](N6CCOCC6)CC5)c(C#N)c4)c(Oc4cnc5[nH]ccc5c4)c3)CC2)=C(c2ccc(Cl)cc2)C1 [Example 109, Trans-4-(4-{[2-(4-chlorophenyl)-4,4-dimethylcyclohex-1-en-1-yl]methyl}piperazin-1-yl)-N-({5-cyano-6-[(4-morpholin-4-ylcyclohexyl)amino]pyridin-3-yl}sulfonyl)-2-(1H-pyrrolo[2,3-b]pyridin-5-yloxy)benzamide]
Second: CC1(C)CCC(CN2CCN(c3ccc(C(=O)NS(=O)(=O)c4ccc(NCc5cccc(OC(F)F)c5)c([N+](=O)[O-])c4)c(Oc4cnc5[nH]ccc5c4)c3)CC2)=C(c2ccc(Cl)cc2)C1 [Example 187, 4-(4-{[2-(4-chlorophenyl)-4,4-dimethylcyclohex-1-en-1-yl]methyl}piperazin-1-yl)-N-[(4-{[3-(difluoromethoxy)benzyl]amino}-3-nitrophenyl)sulfonyl]-2-(1H-pyrrolo[2,3-b]pyridin-5-yloxy)benzamide]
The Ki of the first is 1.6-fold higher: 0.127 nM for the first, 0.08 nM for the second. The second binds more tightly here.

Going from CC1(C)CCC(CN2CCN(c3ccc(C(=O)NS(=O)(=O)c4ccc(NCCCN5CCCC5)c([N+](=O)[O-])c4)c(Oc4cccc5[nH]c6ccccc6c45)c3)CC2)=C(c2ccc(Cl)cc2)C1 [Example 8, 2-(9H-carbazol-4-yloxy)-4-(4-{[2-(4-chlorophenyl)-4,4-dimethylcyclohex-1-en-1-yl]methyl}piperazin-1-yl)-N-({3-nitro-4-[(3-pyrrolidin-1-ylpropyl)amino]phenyl}sulfonyl)benzamide] to CN(C)CCCOc1ccc(CNc2ccc(S(=O)(=O)NC(=O)c3ccc(N4CCN(CC5=C(c6ccc(Cl)cc6)CC(C)(C)CC5)CC4)cc3Oc3cnc4[nH]ccc4c3)cc2[N+](=O)[O-])cc1 [Example 197, 4-(4-{[2-(4-chlorophenyl)-4,4-dimethylcyclohex-1-en-1-yl]methyl}piperazin-1-yl)-N-{[4-({4-[3-(dimethylamino)propoxy]benzyl}amino)-3-nitrophenyl]sulfonyl}-2-(1H-pyrrolo[2,3-b]pyridin-5-yloxy)benzamide], the Ki falls from 0.153 nM to < 0.01 nM.

Same assay, conditions: Table 5, direct comparison Z=N vs Z=C analogs; read-out: Bcl-2 FRET ki

In the case of O=C(NS(=O)(=O)c1ccc(NCC2CCOCC2)c([N+](=O)[O-])c1)c1ccc(N2CCN(Cc3ccccc3-c3ccc(Cl)cc3)CC2)cc1Oc1cnc2[nH]ccc2c1 [Example 1, 4-{4-[(4′-chloro-1,1′-biphenyl-2-yl)methyl]piperazin-1-yl}-N-({3-nitro-4-[(tetrahydro-2H-pyran-4-ylmethyl)amino]phenyl}sulfonyl)-2-(1H-pyrrolo[2,3-b]pyridin-5-yloxy)benzamide], the Ki is reported as 0.225 nM.
